Reference: patent US12012392B2, “Sulfonamide carboxamide compounds” (Inflazome Limited, priority 2017, dated 2024)
Like-named read-outs stand apart in the source and are kept apart here.

How the values were obtained:
[1] = system: NLRP3 inflammasome; details: limited potency, nonspecific; cited from earlier work
[2] = PK protocol (intravenous and oral administration); format: in vivo, male Sprague Dawley rats; details: male, Sprague Dawley, plasma, rat; for Vd: read-out: Vdss
Experimental: Pharmacokinetic parameters were determined in male Sprague Dawley rats (Charles River, UK, 250-350 g; or Vital River Laboratory Animal Technology Co Ltd, Beijing, China, 7-9 weeks old). Animals were individually housed during the study and maintained under a 12 h light/dark cycle. Animals had free access to food and water except that some orally dosed animals were food deprived overnight prior to the study. For intravenous administration, compounds were formulated as a solution in water or DMSO:PBS [10:90] in 2 mL/kg dosing volume and administered via tail vein. For oral administration, compounds were formulated as a solution in water or DMSO:water [10:90] in 5 mL/kg dosing volume and administered orally.
Serial blood samples (about 120-300 μL) were taken from each animal at each of 8 time-points post dose (0.083, 0.25, 0.5, 1, 2, 4, 8 and 24 h) or at each of 12 time-points post dose (0.03, 0.1, 0.17, 0.25, 0.5, 1, 2, 4, 6, 8, 12 and 24 h) or pre-dose and at each of 9 time-points post dose (0.25, 0.5, 1, 2, 4, 6, 8, 12 and 24 h). Samples were held on ice for no longer than 30 minutes before centrifugation (10,000 rpm (8,385 g) for 3 minutes; or 5,696 rpm (3,000 g) for 15 minutes) for plasma generation. Plasma was frozen on dry ice prior to bioanalysis. PK parameters were generated from LC-MS/MS data using Dotmatics or Phoenix WinNonlin 6.3 software.

[3] = molecular target: T1, NLRP3 (Homo sapiens, UniProt Q96P20); experiment: THP-1 cells pyroptosis assay; format: cell-based; design: Seed THP-1 cells (25,000 cells/well) containing 1.0 μg/ml LPS; host or cells: THP-1 cells, LPS-primed, nigericin-stimulated; details: LPS 1 μg/ml, nigericin 5 μM, resazurin read-out
T1 sequence (Q96P20 whole entry): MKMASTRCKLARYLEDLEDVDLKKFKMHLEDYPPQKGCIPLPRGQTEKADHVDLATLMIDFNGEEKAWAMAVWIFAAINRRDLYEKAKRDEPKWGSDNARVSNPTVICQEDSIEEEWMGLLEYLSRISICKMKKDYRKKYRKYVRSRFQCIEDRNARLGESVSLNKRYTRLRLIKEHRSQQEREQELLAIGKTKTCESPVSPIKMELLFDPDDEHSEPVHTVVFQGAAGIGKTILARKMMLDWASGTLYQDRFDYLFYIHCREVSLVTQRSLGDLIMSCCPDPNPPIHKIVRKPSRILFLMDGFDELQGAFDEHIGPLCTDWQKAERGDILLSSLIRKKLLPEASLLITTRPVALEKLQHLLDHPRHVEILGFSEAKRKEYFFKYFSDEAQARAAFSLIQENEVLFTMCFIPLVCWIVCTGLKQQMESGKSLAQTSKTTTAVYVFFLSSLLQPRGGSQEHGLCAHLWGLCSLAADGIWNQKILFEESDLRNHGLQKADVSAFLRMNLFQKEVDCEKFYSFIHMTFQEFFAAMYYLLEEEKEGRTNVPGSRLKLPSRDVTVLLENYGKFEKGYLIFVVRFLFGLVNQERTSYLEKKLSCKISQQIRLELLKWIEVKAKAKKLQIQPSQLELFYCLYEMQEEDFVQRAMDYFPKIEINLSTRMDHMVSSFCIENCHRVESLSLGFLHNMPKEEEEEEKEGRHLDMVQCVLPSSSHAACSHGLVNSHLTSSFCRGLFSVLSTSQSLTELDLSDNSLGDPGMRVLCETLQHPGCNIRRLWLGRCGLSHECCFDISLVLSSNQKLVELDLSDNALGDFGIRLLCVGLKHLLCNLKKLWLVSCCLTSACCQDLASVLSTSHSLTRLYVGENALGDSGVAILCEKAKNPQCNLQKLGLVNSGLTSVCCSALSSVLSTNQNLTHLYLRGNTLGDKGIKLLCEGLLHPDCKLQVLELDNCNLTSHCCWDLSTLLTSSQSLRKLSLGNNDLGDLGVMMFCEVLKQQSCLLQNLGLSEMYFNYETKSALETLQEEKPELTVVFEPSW
Outline: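 THP-1 cells (25,000/well) primed with 1 μg/ml LPS in serum-free RPMI, given compound (8-point half-log, 10 μM top, 0.1% DMSO) for 3 hrs, then nigericin 5 μM for 1 hr at 37° C. Viability of remaining cells read by resazurin (100 μM, 1–2 hrs) fluorescence; IC50 from 4-parameter fit.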

[4] = molecular target: T1, NLRP3; experiment: Human whole blood IL1β release assay; format: cell-based; design: Plate out 80 μl of whole blood containing 1 μg/ml of LPS; from tissue; host or cells: human whole blood from healthy donors, LPS-primed, nigericin-stimulated; details: LPS 1 μg/ml, nigericin 10 μM, IL-1β AlphaLisa, read-out: HWB IC50
Outline: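 Donor Li-heparin whole blood with 1 μg/ml LPS preincubated 3 h at 37 °C with compound (8-point half-log series, 10 μM top; 0.1% DMSO). Nigericin (10 μM final) added for 1 h, then supernatant IL-1β measured by AlphaLISA. IC50 from 4-parameter variable-slope fit.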

O=[N+]([O-])C=Cc1ccc2c(c1)OCO2 [3,4-methylenedioxy-β-nitrostyrene]
NLRP3 inhibition (potency in words) [1]: weak

CCn1nc(S(=O)(=O)NC(=O)Nc2c3c(cc4c2CCC4)CCC3)cc1C1(OC)COC1 [Example 45, 1-Ethyl-N-((1,2,3,5,6,7-hexahydro-s-indacen-4-yl)carbamoyl)-5-(3-methoxyoxetan-3-yl)-1H-pyrazole-3-sulfonamide]
AUC ([2]; intravenous, dose 2.99 mg/kg): 2320 ng·h/mL
clearance ([2]; intravenous, dose 2.99 mg/kg): 21.6 mL/min/kg
half-life ([2]; intravenous, dose 2.99 mg/kg): 0.8 h
Vd ([2]; intravenous, dose 2.99 mg/kg): 1.11 L/kg
IC50 [3]: < 40 nM
IC50 [4]: < 400 nM

CCn1nc(S(=O)(=O)NC(=O)Nc2c3c(cc4c2CCC4)CCC3)cc1C1(O)COC1 [Example 46, 1-Ethyl-N-((1,2,3,5,6,7-hexahydro-s-indacen-4-yl)carbamoyl)-5-(3-hydroxyoxetan-3-yl)-1H-pyrazole-3-sulfonamide]
AUC ([2]; intravenous, dose 1.42 mg/kg): 2380 ng·h/mL
clearance ([2]; intravenous, dose 1.42 mg/kg): 10 mL/min/kg
half-life ([2]; intravenous, dose 1.42 mg/kg): 1.6 h
Vd ([2]; intravenous, dose 1.42 mg/kg): 0.56 L/kg
IC50 [3]: < 40 nM
IC50 [4]: < 400 nM

COC1(c2cc(S(=O)(=O)NC(=O)Nc3c4c(cc5c3CCC5)CCC4)nn2C)CCOC1 (stereo not shown) [Example 48, N-((1,2,3,5,6,7-Hexahydro-s-indacen-4-yl)carbamoyl)-5-(3-methoxytetrahydrofuran-3-yl)-1-methyl-1H-pyrazole-3-sulfonamide]
AUC ([2]; intravenous, dose 1 mg/kg): 948 ng·h/mL
clearance ([2]; intravenous, dose 1 mg/kg): 17.6 mL/min/kg
half-life ([2]; intravenous, dose 1 mg/kg): 2.9 h
Vd ([2]; intravenous, dose 1 mg/kg): 1.74 L/kg
IC50 [3]: < 40 nM
IC50 [4]: < 400 nM

Cn1nc(S(=O)(=O)NC(=O)Nc2c3c(cc4c2CCC4)CCC3)cc1C1(O)COC1 [Example 51, N-((1,2,3,5,6,7-Hexahydro-s-indacen-4-yl)carbamoyl)-5-(3-hydroxyoxetan-3-yl)-1-methyl-1H-pyrazole-3-sulfonamide]
AUC ([2]; intravenous, dose 1 mg/kg): 1860 ng·h/mL
clearance ([2]; intravenous, dose 1 mg/kg): 9 mL/min/kg
half-life ([2]; intravenous, dose 1 mg/kg): 6.6 h
Vd ([2]; intravenous, dose 1 mg/kg): 1.18 L/kg
IC50 [3]: 40 to 160 nM
IC50 [4]: < 400 nM

COC1(c2cc(S(=O)(=O)NC(=O)Nc3c4c(cc5c3CCC5)CCC4)nn2C)COC1 [Example 53, N-((1,2,3,5,6,7-Hexahydro-s-indacen-4-yl)carbamoyl)-5-(3-methoxyoxetan-3-yl)-1-methyl-1H-pyrazole-3-sulfonamide]
AUC ([2]; intravenous, dose 1 mg/kg): 1280 ng·h/mL
clearance ([2]; intravenous, dose 1 mg/kg): 13.3 mL/min/kg
half-life ([2]; intravenous, dose 1 mg/kg): 11.5 h
Vd ([2]; intravenous, dose 1 mg/kg): 3.48 L/kg
IC50 [3]: < 40 nM
IC50 [4]: < 400 nM

COCCN(CCOC)C(=O)c1cc(S(=O)(=O)NC(=O)Nc2c3c(cc4c2CCC4)CCC3)nn1C [Example 72, 3-(N-((1,2,3,5,6,7-Hexahydro-s-indacen-4-yl)carbamoyl)sulfamoyl)-N,N-bis(2-methoxyethyl)-1-methyl-1H-pyrazole-5-carboxamide]
AUC ([2]; intravenous, dose 2.88 mg/kg): 330 ng·h/mL
clearance ([2]; intravenous, dose 2.88 mg/kg): 149 mL/min/kg
half-life ([2]; intravenous, dose 2.88 mg/kg): 0.2 h
Vd ([2]; intravenous, dose 2.88 mg/kg): 1.84 L/kg
IC50 [3]: 40 to 160 nM
IC50 [4]: 400 to 800 nM

COCCN(C)C(=O)c1cc(S(=O)(=O)NC(=O)Nc2c3c(cc4c2CCC4)CCC3)nn1C [Example 73, 3-(N-((1,2,3,5,6,7-Hexahydro-s-indacen-4-yl)carbamoyl)sulfamoyl)-N-(2-methoxyethyl)-N,1-dimethyl-1H-pyrazole-5-carboxamide]
AUC ([2]; intravenous, dose 1 mg/kg): 1160 ng·h/mL
clearance ([2]; intravenous, dose 1 mg/kg): 14.4 mL/min/kg
half-life ([2]; intravenous, dose 1 mg/kg): 2.9 h
Vd ([2]; intravenous, dose 1 mg/kg): 2.24 L/kg
AUC ([2]; oral, dose 3 mg/kg): 2420 ng·h/mL
Cmax ([2]; oral, dose 3 mg/kg): 701 ng/mL
IC50 [3]: 40 to 160 nM
IC50 [4]: 400 to 800 nM

C[S+](C)[O-] [dimethyl sulfoxide (DMSO), dimethyl sulfoxide]
NLRP3 inhibition (potency in words) [1]: weak
